Reference: patent US20170368119A1, “METHODS AND COMPOSITIONS FOR TREATING C-MET ASSOCIATED CANCERS” (YEASTERN BIOTECH CO., LTD, priority 2014, published 2017)

Tests used:
HCC329 [1] = assay: cell proliferation assay (doubling time), HCC329; type: cell-based, human; details: 0.5, 1.0 and 2.0 μg/ml, dose dependent, 72 hours, untreated = 100%
Procedure: (§1) The most motile HCC cell lines identified in Example 2, namely HCC372 and HCC329, were employed for testing the molecular and cellular effects of FIP-gts on HCC, in comparison with those of JNJ-38877605 (abbreviated hereafter as JNJ), which is an ATP-competitive inhibitor for the catalytic activity of c-Met. In the cell proliferation assay, HCC329 and HCC372 cells were untreated or treated with FIP-gts (prepared in Example 4) at 0.5, 1.0 or 2.0 μg/ml for 72 hours. Cell numbers were counted, and the relative doubling times of the respective treated groups were determined by taking the data of the untreated group as 100%. The wound healing migration assay was repeated as described in Example 2, except that HCC329 and HCC372 were additionally treated with FIP-gts and JNJ (MedKoo Biosciences, Chapel Hill, N.C., USA), respectively, for 48 hours. Relative migration was analyzed quantitatively by taking the motility of untreated cells (Con) as 1.0. The results were shown in FIGS. 3A and 3B, in which the symbols (**), (*) and (#) represent statistical significance (p<0.005 and p<0.05, respectively, n=3) between the indicated inhibitor-treated samples and untreated HCC329 or HCC372 control group.

HCC372 [2] = assay: cell proliferation assay (doubling time), HCC372; type: cell-based, human; details: 0.5, 1.0 and 2.0 μg/ml, dose dependent, 72 hours, untreated = 100%
Procedure: as §1

HCC372 [3] = assay: wound healing migration assay, HCC372; type: cell-based, human; details: FIP-gts 2.0 μg/ml, 48 hours
Procedure: (§2) The HCC cells were cultivated on 24-well plates accompanied with a wound healing culture insert until confluence followed by serum starvation of the cells for 24 hours and the culture insert were then removed. After appropriate treatments, pictures were taken under a phase contrast microscope at indicated times. Quantitative analysis of motility of the HCC cell lines described in Example 1 was performed by directly counting the cells migrating into the blanking area at 48 hours using Image J. Software available from the NIH website. In general, motilities of the mesenchymal HCCs were higher than those of the epithelial ones.
The most motile HCC cell lines identified in Example 2, namely HCC372 and HCC329, were employed for testing the molecular and cellular effects of FIP-gts on HCC, in comparison with those of JNJ-38877605 (abbreviated hereafter as JNJ), which is an ATP-competitive inhibitor for the catalytic activity of c-Met. In the cell proliferation assay, HCC329 and HCC372 cells were untreated or treated with FIP-gts (prepared in Example 4) at 0.5, 1.0 or 2.0 μg/ml for 72 hours. Cell numbers were counted, and the relative doubling times of the respective treated groups were determined by taking the data of the untreated group as 100%. […] Relative migration was analyzed quantitatively by taking the motility of untreated cells (Con) as 1.0. […]

HCC329 [4] = assay: wound healing migration assay, HCC329; type: cell-based, human; details: FIP-gts, 48 hours
Procedure: The HCC cells were cultivated on 24-well plates accompanied with a wound healing culture insert until confluence followed by serum starvation of the cells for 24 hours and the culture insert were then removed. After appropriate treatments, pictures were taken under a phase contrast microscope at indicated times.
Cell numbers were counted, and the relative doubling times of the respective treated groups were determined by taking the data of the untreated group as 100%. […] Relative migration was analyzed quantitatively by taking the motility of untreated cells (Con) as 1.0.

HepG2 = assay: wound healing migration assay, HGF-induced HepG2; type: cell-based, human; details: 25 nM HGF, FIP-gts 2.0 μg/ml versus JNJ 26.5 nM, 48 hours
Procedure: as §2
In a separate experiment, human hepatoma cell line HepG2, a non-motile HCC cell line conventionally used for observing HGF-inducible molecular and cellular effects, was employed. In this experiment, the wound healing migration assay described in Example 2 was again repeated, except that HepG2 (purchased from Bioresource Collection and Research Center (BCRC), Hsinchu, Taiwan) was treated with FIP-gts or JNJ-38877605 for 48 hours in the presence or absence of 25 nM HGF (PeproTech Inc., Rocky Hill, N.J., USA). Relative migration was quantitatively analyzed taking the motility of untreated cells (Con) as 1.0. […]

HCC329 [5] = assay: HCC329 tumor development and metastasis in SCID mice model; type: in vivo; details: FIP-gts 4.0-20 μg/g mouse, intraperitoneal twice a week, 2 months
Procedure: HCC329 cells (approximately 2×10^7) suspended in 100 μl Dulbecco's Modified Eagle Medium (DMEM; Gibco, Grand Island, N.Y., USA) were directly injected into the subserosa of the middle liver lobe of the SCID mice, followed by intraperitoneal administration twice a week with DMEM as a vehicle, vehicle-containing FIP-gts (4.0-20 μg/g mouse) or JNJ (0.5-2.0 nmole/g mouse).
The mice were sacrificed 2 months after injection. Tumor mass was measured and the occurrence of intrahepatic metastasis and/or extrahepatic metastasis was recorded. Nodules with diameter of more than 0.1-0.2 cm observed on the left or right lobes were recognized as secondary tumor foci. […] Extra-hepatic metastasis was defined to be the case where the tumors appearing in organs other than liver such as in intestine. During the animal experiment, the regulations relevant to the care and use of laboratory animals were followed. This was approved by the Institutional Animal Care and Use Committee (IACUC) in Tzu Chi University (No. of consent form: 102080).

[6] = toxicity test on normal SCID mice; type: in vivo; details: 20 μg/g mouse intraperitoneal, 2-3 month, data not shown
Procedure: In comparison, the effect of c-Met inhibitor JNJ on tumor progression of HCC329 was not prominent (FIG. 4). The toxicity test of FIP-gts on SCID mice was also performed by treating 4 normal SCID mice without inoculation of HCC329.

[7] = system: p-JNK, p-ERK, p-AKT, p-EGFR in HCC329; assay: immuno-blotting of signaling molecules, HCC329; type: cell-based, human
Excerpt: To investigate the molecular mechanism of FIP-gts in suppression of tumor progression of HCCs, the effects of FIP-gts on the activity and/or quantity of the critical members present in c-Met dependent signaling pathway, including c-Met, phosphorylated c-Met (p-c-Met) and downstream effectors p-JNK and p-ERK, were examined in HCCs. […] Total proteins were harvested from the cells and subjected to immuno-blotting analysis using GAPDH as a loading control. Antibodies for p-c-Met, p-JNK, p-ERK and p-paxillin (S178), GAPDH and ERK were purchased from Santa Cruz Biotechnology (California, USA). The band intensities on the blots were quantified with Image J. Software. Relative band intensity of each molecule was calculated, taking the data of untreated HCC372 or HCC329 as 1.0.

[8] = system: c-Met, p-c-Met, p-JNK, p-ERK, p-AKT in HCC372; assay: immuno-blotting of c-Met dependent signaling, HCC372; type: cell-based, human; details: 2.0 μg/ml
Procedure: To investigate the molecular mechanism of FIP-gts in suppression of tumor progression of HCCs, the effects of FIP-gts on the activity and/or quantity of the critical members present in c-Met dependent signaling pathway, including c-Met, phosphorylated c-Met (p-c-Met) and downstream effectors p-JNK and p-ERK, were examined in HCCs. HCC329 and HCC372 cells were treated with FIP-gts (2 μg/ml) for 4 or 24 hours. Total proteins were harvested from the cells and subjected to immuno-blotting analysis using GAPDH as a loading control. Antibodies for p-c-Met, p-JNK, p-ERK and p-paxillin (S178), GAPDH and ERK were purchased from Santa Cruz Biotechnology (California, USA). The band intensities on the blots were quantified with Image J. Software. Relative band intensity of each molecule was calculated, taking the data of untreated HCC372 or HCC329 as 1.0. The results were shown in FIGS. 5A and 5B, in which (**) (##) and (*) (#) represent statistical significance (p<0.005 and p<0.05, respectively, n=3) between the indicated inhibitor-treated sample and untreated HCC329 or HCC372 control group.

[9] = system: HGF-induced c-Met signaling in HepG2; assay: immuno-blotting of HGF-induced c-Met signaling, HepG2; type: cell-based, human; details: 2.0 μg/ml, 0.5 hour, HGF 25 nM
Procedure: HepG2 cells were treated with FIP-gts (2.0 μg/ml) for 0.5 hour in the presence or absence of HGF (25 nM). Total proteins were harvested from the cells and immuno-blotting analysis was performed as described in Example 6, except using ERK as the loading control. The results were shown in FIGS. 5C and 5D, in which (**) represent statistical significance (p<0.005, n=3) between the indicated HGF/FIP-gts co-treated sample and the HGF alone group.

In the case of “FIP-gts: fungal immunomodulatory protein of SEQ ID NO: 1 (Ganoderma tsugae), recombinantly expressed in Saccharomyces cerevisiae”, the “increase of doubling time” value (HCC329 [1]) is reported as 25-46%, the “increase of doubling time” value (HCC372 [2]) is reported as 14-47% and the “suppression of cell migration” value (HCC372 [3]) is reported as 95%. The “suppression of cell migration” value (HCC329 [4]) was 80%, the “prevention of HGF-induced cell migration” value (HepG2) was “much more effectively than JNJ” and the “secondary tumors on liver lobes (intra-hepatic metastasis)” value (HCC329 [5]) was “normal liver lobule structure”. The “tumor progression (primary tumor growth and intra-metastasis) of HCC329” value (HCC329 [5]) was “dramatically suppressed tumor progression”, the “adverse effects (activity of animals, integrity of organs)” value [6] was “no adverse effects was observed” and the “decrease of phosphorylation of AKT” value ([7]; 2.0 μg/ml, 24 hours) was 18%. For the same substance, the “decrease of phosphorylation of ERK” value ([7]; 2.0 μg/ml, 24 hours) was 51%, the “decrease of phosphorylation of JNK” value ([7]; 2.0 μg/ml, 24 hours) was 85% and the “phosphorylated EGFR (p-EGFR) level” value ([7]; 16 hours, versus untreated, data not shown) was “remarkably reduced”. The “effect on p-JNK” value [8] was “didn't decrease p-JNK at all”, the “suppression of expression of Met protein” value ([8]; 4th hour) was 90-95% and the “suppression of phosphorylation of AKT” value ([8]; 4th hour) was 80-95%. For the same substance, the “suppression of phosphorylation of ERK” value ([8]; 4th hour) was 80-95%, the “suppression of phosphorylation of Met (at Tyr1234)” value ([8]; 4th hour) was 55% and the “suppression of HGF-induced p-ERK” value [9] was 85-90%. The “suppression of HGF-induced p-JNK” value [9] was 85-90%, the “suppression of HGF-induced p-c-Met” value [9] was 85-90% and the “suppression of HGF-induced phosphorylated paxillin (at Ser 178)” value [9] was 85-90%.
